US5747235A, “Silver halide light sensitive emulsion layer having enhanced photographic sensitivity” (Eastman Kodak Company, priority 1996, dated 1998)
Where a name gives a salt, the structure may show the parent alone.

How the values were obtained:
[1] = Example 8: photographic speed and fog, 365 nm exposure, cubic emulsion C-2; parameters: Fog: unit not given here
Method: (§1) For photographic evaluation, each of the coating strips was exposed for 0.1 sec to a 365 nm emission line of a Hg lamp filtered through a Kodak Wratten filter number 18A and a step wedge ranging in density from 0 to 4 density units in 0.2 density steps. The exposed film strips were developed for 6 min in Kodak Rapid X-ray Developer (KRX). S365, relative sensitivity at 365 nm, was evaluated at a density of 0.2 units above fog.
(§2) Two cubic emulsions with uniform halide composition were precipitated using deionized gelatin. Emulsion C-1 was a AgErI emulsion with a 3% I content and a cubic edge length of 0.47 μm and emulsion C-2 was an AgBr emulsion with a cubic edge length of 0.52 μm. The emulsions were sulfur sensitized by adding 1,3-dicarboxymethyl-1,3-dimethyl-2-thiourea at 40° C.; the temperature was then raised to 60° C. at a rate of 5° C./3 min and the emulsions held for 20 min before cooling to 40° C. The amounts of the sulfur sensitizing compound used were 1.0×10^-5 mole/mole Ag for emulsion C-1, and 6.0×10^-6mole/mole Ag for emulsion C-2. These experimental coating variations contained the hydroxybenzene, 2,4-disulfocatechcol (HB3) at a concentration of 13 mmole/mole Ag, added to the melt before the addition of any further compounds. Some of the variations were then dyed with the sensitizing dye D-II, added from methanol solution. The fragmentable electron donor compounds were then added to the emulsion melts at 40° C. and coatings were prepared and tested as described in Example 1 except that the additional gelatin used to prepare the coatings described in Table VIII was deionized gelatin. Also, the dyed coatings were tested for their response to a spectral exposure as described in Example 3.

[2] = Example 8: photographic speed and fog, 365 nm exposure, cubic emulsion C-1; parameters: Fog: unit not given here; conditions: for sensitivity increase: both undyed cubic emulsions (C-1 and C-2)
Method: as §1, §2

[3] = Example 4: photographic speed and fog, 365 nm exposure, blue dyed emulsion T-2; parameters: Fog: unit not given here; conditions: for Fog / S365: dye I 0.91 x10^-3; for S365: dyed control=100; for fog change: Table IV
Method: as §1
(§3) An AgBrI tabular silver halide emulsion (Emulsion T-2) was prepared containing 4.05% total I distributed such that the central portion of the emulsion grains contained 1.5% I and the perimeter area contained substantially higher I, as described by Chang et. al., U.S. Pat. No. 5,314,793. […] This emulsion was precipitated using deionized gelatin. The emulsion was sulfur sensitized by adding 8.5×10^-6 mole 1,3-dicarboxymethyl-1,3-dimethyl-2-thiourea /mole Ag at 40° C.; the temperature was then raised to 60° C. at a rate of 5° C./3 min and the emulsions held for 20 min before cooling to 40° C. The chemically sensitized emulsion was then used to prepare coatings containing the fragmentable two-electron donor compounds. All of the experimental coating variations in Table III contained the hydroxybenzene 2,4-disulfocatechol (HB3) at a concentration of 13 mmole/ mole Ag, added to the melt before the addition of any further addenda. Where present, the blue sensitizing dye D-I or the red sensitizing dye D-II were added from methanol solution to the emulsion at 40° C. after the chemical sensitization and disulfocatechol addition. The fragmentable two-electron donor compounds were added to the emulsion at 40° C. and the coatings were prepared and tested as described in Example 1, except that the additional gelatin used to prepare the coatings described in Table III was deionized gelatin.
The chemically sensitized AgBrI tabular emulsion T-2 as described in Example 3 was used to prepare the experimental coating variations listed in Table IV, comparing various structurally related fragmentable two-electron donating compounds varying in first oxidation potential E1. The blue sensitizing dye D-I was added from methanol solution to the emulsion at 40° C. after the chemical sensitization. The fragmentable two-electron donating compounds were then added to the emulsion and coatings prepared and tested as described in Example 3.

[4] = Example 9: photographic speed and fog, 365 nm exposure, red dyed emulsion T-2; conditions: for Fog / S365: dye II 0.86 x10^-3; for S365: undyed control=100, dyed control 62; for 365 nm sensitivity of dyed emulsion: dye D-II
Method: as §1, §3
The sulfur sensitized AgBrI tabular emulsion T-2 as described in Example 3 was used to prepare coatings of the fragmentable two-electron donors S-15, S-14, S-13, and S-11, as described in Table IX. All of the experimental coating variations in Table IX contained the hydroxybenzene, 2,4-disulfocatechcol (HB3) at a concentration of 13 mmole/mole Ag, added to the melt before any further addenda. Where present, the red sensitizing dye D-II was added from methanol solution to the emulsion at 40° C. after the chemical sensitization and disulfocatechol addition. The fragmentable two-electron donor compounds were then added to the emulsion and coatings prepared and tested as described in Example I, except that the additional gelatin used to prepare the coatings described in Table IX was deionized gelatin.

[5] = Example 6: spectral sensitivity, wedge spectrographic exposure, emulsion T-2; conditions: dye II 0.86 x10^-3, dyed control=100
Method: Additional testing was carried out to determine the response of the coatings described in Table III to a spectral exposure. Each of the coating strips was exposed for 0.1 sec on a wedge spectrographic instrument that covers the wavelength range from 400 to 750 nm. The instrument contains a tungsten light source and a step tablet ranging in density from 0 to 3 density units in 0.3 density steps. After developing exposed strips for 6 min in Kodak Rapid X-ray Developer (KRX), speed was read at 10 nm wavelength intervals at a density of 0.3 above fog. Correction for the instrument's variation in spectral irradiance with wavelength was done with a computer and a plot of log sensitivity vs. wavelength was generated. For this exposure, for each dye used, the relative sensitivity was set equal to 100 for the control coating with no fragmentable two-electron donor compound added.
The chemically sensitized AgErI tabular emulsion T-2 as described in Example 3 was used to prepare the experimental coating variations listed in Table VI, comparing fragmentable electron donating compounds PMT-1 and PMT-2 that contain a phenylmercaptotetrazole as the silver halide adsorbing group. For some of the experimental variations listed in Table VI the red sensitizing dye D-II was added from methanol solution to the emulsion at 40° C. after the chemical sensitization. The fragmentable electron donating compounds were then added to the emulsion and coatings prepared and tested for sensitivity at 365 nm and for spectral sensitivity as described in Example 3.

[6] = 0.05 x10^-3 mol/mol Ag, no dye, control=100
[7] = 0.16 x10^-3 mol/mol Ag, no dye, control=100
[8] = 0.50 x10^-3 mol/mol Ag, no dye, control=100

CCSCCN(c1ccccc1)C(C)C(=O)O (centres unmarked) [Compound S-9, N-(Phenyl)-N-(2-thioethyl-ethyl)alanine sodium salt]
Fog ([1]; 0.005 x10^-3 mol/mol Ag, dye II 0.40 x10^-3): 0.16
S365 ([1]; 0.005 x10^-3 mol/mol Ag, dye II 0.40 x10^-3, dyed control 76): 141
Fog ([1]; 0.016 x10^-3 mol/mol Ag, dye II 0.40 x10^-3): 0.19
S365 ([1]; 0.016 x10^-3 mol/mol Ag, dye II 0.40 x10^-3, dyed control 76): 166
Fog ([1]; 0.05 x10^-3 mol/mol Ag, no dye): 0.06
S365 [1, 6]: 204
Fog ([1]; 0.16 x10^-3 mol/mol Ag, no dye): 0.06
S365 [1, 7]: 209
Fog ([2]; 0.005 x10^-3 mol/mol Ag, dye II 0.44 x10^-3): 0.18
S365 ([2]; 0.005 x10^-3 mol/mol Ag, dye II 0.44 x10^-3, dyed control 105): 162
Fog ([2]; 0.016 x10^-3 mol/mol Ag, dye II 0.44 x10^-3): 0.21
S365 ([2]; 0.016 x10^-3 mol/mol Ag, dye II 0.44 x10^-3, dyed control 105): 191
Fog ([2]; 0.05 x10^-3 mol/mol Ag, no dye): 0.07
S365 [2, 6]: 229
Fog ([2]; 0.16 x10^-3 mol/mol Ag, no dye): 0.07
S365 [2, 7]: 234
sensitivity increase [2]: approximately a factor of two
Fog ([3]; 0.22 x10^-3 mole/mole Ag): 0.21
S365 ([3]; 0.22 x10^-3 mole/mole Ag): 129
Fog ([3]; 0.44 x10^-3 mole/mole Ag): 0.41
S365 ([3]; 0.44 x10^-3 mole/mole Ag): 102
Fog ([3]; 0.88 x10^-3 mole/mole Ag): 0.63
fog change [3]: modest increases in fog

CCSCCN(c1ccc(C(=O)O)cc1)C(C)C(=O)O (centres unmarked) [Compound S-11]
Fog ([4]; 0.007 x10^-3 mol/mol Ag): 0.12
S365 ([4]; 0.007 x10^-3 mol/mol Ag): 87
Fog ([4]; 0.022 x10^-3 mol/mol Ag): 0.13
S365 ([4]; 0.022 x10^-3 mol/mol Ag): 100
365 nm sensitivity of dyed emulsion [4]: restored to that of the undyed emulsion
Fog ([1]; 0.05 x10^-3 mol/mol Ag, dye II 0.40 x10^-3): 0.10
S365 ([1]; 0.05 x10^-3 mol/mol Ag, dye II 0.40 x10^-3, dyed control 76): 145
Fog ([1]; 0.16 x10^-3 mol/mol Ag, dye II 0.40 x10^-3): 0.14
S365 ([1]; 0.16 x10^-3 mol/mol Ag, dye II 0.40 x10^-3, dyed control 76): 166
Fog ([1]; 0.16 x10^-3 mol/mol Ag, no dye): 0.06
S365 [1, 7]: 200
Fog ([1]; 0.50 x10^-3 mol/mol Ag, no dye): 0.06
S365 [1, 8]: 209
Fog ([2]; 0.05 x10^-3 mol/mol Ag, dye II 0.44 x10^-3): 0.14
S365 ([2]; 0.05 x10^-3 mol/mol Ag, dye II 0.44 x10^-3, dyed control 105): 162
Fog ([2]; 0.16 x10^-3 mol/mol Ag, dye II 0.44 x10^-3): 0.16
S365 ([2]; 0.16 x10^-3 mol/mol Ag, dye II 0.44 x10^-3, dyed control 105): 186
Fog ([2]; 0.16 x10^-3 mol/mol Ag, no dye): 0.07
S365 [2, 7]: 219
Fog ([2]; 0.50 x10^-3 mol/mol Ag, no dye): 0.07
S365 [2, 8]: 234
sensitivity increase [2]: approximately a factor of two
Fog ([3]; 0.22 x10^-3 mole/mole Ag): 0.05
S365 ([3]; 0.22 x10^-3 mole/mole Ag): 145
Fog ([3]; 0.44 x10^-3 mole/mole Ag): 0.06
S365 ([3]; 0.44 x10^-3 mole/mole Ag): 145
Fog ([3]; 0.88 x10^-3 mole/mole Ag): 0.07
S365 ([3]; 0.88 x10^-3 mole/mole Ag): 145

CCSCCN(c1ccc(Cl)cc1)C(C)C(=O)O (centres unmarked) [Compound S-12, N-(4-Chlorophenyl)-N-(2-thioethyl-ethyl)alanine sodium salt]
Fog ([3]; 0.22 x10^-3 mole/mole Ag): 0.18
S365 ([3]; 0.22 x10^-3 mole/mole Ag): 145
Fog ([3]; 0.44 x10^-3 mole/mole Ag): 0.21
S365 ([3]; 0.44 x10^-3 mole/mole Ag): 141
Fog ([3]; 0.88 x10^-3 mole/mole Ag): 0.29
S365 ([3]; 0.88 x10^-3 mole/mole Ag): 138
fog change [3]: modest increases in fog

CCSCCN(c1cccc(C(N)=O)c1)C(C)C(=O)O (centres unmarked) [Compound S-13]
Fog ([4]; 0.007 x10^-3 mol/mol Ag): 0.13
S365 ([4]; 0.007 x10^-3 mol/mol Ag): 95
Fog ([4]; 0.022 x10^-3 mol/mol Ag): 0.20
S365 ([4]; 0.022 x10^-3 mol/mol Ag): 102
365 nm sensitivity of dyed emulsion [4]: restored to that of the undyed emulsion
Fog ([3]; 0.22 x10^-3 mole/mole Ag): 0.10
S365 ([3]; 0.22 x10^-3 mole/mole Ag): 151
Fog ([3]; 0.44 x10^-3 mole/mole Ag): 0.13
S365 ([3]; 0.44 x10^-3 mole/mole Ag): 151
Fog ([3]; 0.88 x10^-3 mole/mole Ag): 0.14
S365 ([3]; 0.88 x10^-3 mole/mole Ag): 166

CCSCCN(c1ccccc1)C(CC(=O)O)C(=O)O (centres unmarked) [Compound S-14]
Fog ([4]; 0.007 x10^-3 mol/mol Ag): 0.11
S365 ([4]; 0.007 x10^-3 mol/mol Ag): 89
Fog ([4]; 0.022 x10^-3 mol/mol Ag): 0.14
S365 ([4]; 0.022 x10^-3 mol/mol Ag): 97
365 nm sensitivity of dyed emulsion [4]: restored to that of the undyed emulsion

Cc1ccc(N(CCC(=O)Nc2cccc(-n3nnnc3S)c2)C(C)C(=O)O)cc1 (centres unmarked) [PMT-1]
Sλ ([5]; 0.0006 x10^-3 mole/mole Ag): 115
Sλ ([5]; 0.0017 x10^-3 mole/mole Ag): 145
Sλ ([5]; 0.0055 x10^-3 mole/mole Ag): 126

CC(C(=O)O)N(CCC(=O)Nc1cccc(-n2nnnc2S)c1)c1ccccc1 (centres unmarked) [PMT-2]
Sλ ([5]; 0.0005 x10^-3 mole/mole Ag): 123
Sλ ([5]; 0.0016 x10^-3 mole/mole Ag): 145
Sλ ([5]; 0.005 x10^-3 mole/mole Ag): 151
